Experimental data taken from patent US10407422B2, “Triazolopyridine inhibitors of myeloperoxidase” (priority 2015, dated 2019).

How the values were obtained:
[1] = biological target: T1, myeloperoxidase (MPO) (Homo sapiens (Human), UniProt P05164); assay: MPO peroxidation assay (Amplex Red assay); assay type: biochemical; conditions: potency range class
Outline: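 IC50 values come from a four-parameter fit of rates taken from the linear 180-540 s portion of a 15 min kinetic read of resorufin (Ex 535/Em 590 nm). Amplex Red (200 μM) plus 10 mM H2O2 was added after a 10 min room-temperature preincubation of inhibitor with 200 pM MPO and 40 nM H2O2 in 100 mM KPi, pH 7.4.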

[2] = biological target: T1, myeloperoxidase (MPO); assay: MPO chlorination assay (APF assay); assay type: biochemical; conditions: potency range class
Outline: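 Chlorinating activity followed by APF cleavage to fluorescein (485/535 nm, 3 min kinetic read) after adding APF and 10 μM H2O2. Beforehand, 200 pM enzyme, compound and 120 mM NaCl sat 10 min at room temperature in 100 mM KPi, pH 7.4. Initial-rate slopes gave % inhibition; IC50 by Hill-slope fit.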

T1 sequence (P05164 49-745): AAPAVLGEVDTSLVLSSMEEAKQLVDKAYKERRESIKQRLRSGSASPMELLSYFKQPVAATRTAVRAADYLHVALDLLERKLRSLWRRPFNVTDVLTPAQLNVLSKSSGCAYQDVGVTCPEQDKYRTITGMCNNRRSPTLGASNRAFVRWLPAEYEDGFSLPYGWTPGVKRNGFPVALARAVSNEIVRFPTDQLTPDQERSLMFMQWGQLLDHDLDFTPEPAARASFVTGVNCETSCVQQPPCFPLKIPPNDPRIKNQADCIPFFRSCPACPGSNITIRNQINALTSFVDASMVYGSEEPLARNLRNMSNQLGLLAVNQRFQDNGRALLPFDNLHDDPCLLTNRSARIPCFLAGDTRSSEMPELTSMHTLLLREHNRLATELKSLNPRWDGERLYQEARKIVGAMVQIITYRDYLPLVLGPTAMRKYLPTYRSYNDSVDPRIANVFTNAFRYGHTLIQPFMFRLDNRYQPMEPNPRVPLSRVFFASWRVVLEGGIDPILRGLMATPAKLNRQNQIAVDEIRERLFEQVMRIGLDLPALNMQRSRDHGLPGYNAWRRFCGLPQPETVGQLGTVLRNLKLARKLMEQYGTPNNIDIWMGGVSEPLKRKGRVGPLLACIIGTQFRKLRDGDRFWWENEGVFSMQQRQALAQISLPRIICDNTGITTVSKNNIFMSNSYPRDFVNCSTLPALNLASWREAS

SMILES | IC50 [1] [nM] | IC50 [2] [nM]
Cc1ccc([C@@H]2CCNC2)cc1Cn1cc(Cc2cc(N)nc3[nH]nnc23)cn1 [Example 194, 7-{[1-({2-Methyl-5-[(3S)-pyrrolidin-3-yl]phenyl}methyl)-1H-pyrazol-4-yl]methyl}-3H-[1,2,3]triazolo[4,5-b]pyridin-5-amine] | 1 to 100 | 1000 to 10000
Nc1cc(Cc2cnn(Cc3cccc4c3CCCC4)c2)c2nn[nH]c2n1 [Example 135, 7-{[1-(5,6,7,8-Tetrahydronaphthalen-1-ylmethyl)-1H-pyrazol-4-yl]methyl}-3H-[1,2,3]triazolo[4,5-b]pyridin-5-amine] | 1 to 100 | 1 to 100
Nc1cc(Cc2cnn(C(CCO)c3ccccc3)c2)c2nn[nH]c2n1 (centres unmarked) [Example 143, 3-(4-((5-Amino-3H-[1,2,3]triazolo[4,5-b]pyridin-7-yl)methyl)-1H-pyrazol-1-yl)-3-phenylpropan-1-ol] | 101 to 999 | 101 to 999
CN1CCC(c2cccc(Cn3cc(Cc4cc(N)nc5[nH]nnc45)cn3)c2)CC1 [Example 209, 7-[(1-{[3-(1-Methylpiperidin-4-yl)phenyl]methyl}-1H-pyrazol-4-yl)methyl]-3H-[1,2,3]triazolo[4,5-b]pyridin-5-amine] | 101 to 999 | 101 to 999
COc1cc2cc(Cn3cc(Cc4cc(N)nc5[nH]nnc45)cn3)ccc2cn1 [Example 173, 7-((1-((3-Methoxyisoquinolin-6-yl)methyl)-1H-pyrazol-4-yl)methyl)-3H-[1,2,3]triazolo[4,5-b]pyridin-5-amine] | 1 to 100 | 101 to 999
Cc1nnc(C(C)NC(=O)c2ccc(Cn3cc(Cc4cc(N)nc5[nH]nnc45)cn3)cc2)[nH]1 (centres unmarked) [Example 95, 4-{[4-({5-Amino-3H-[1,2,3]triazolo[4,5-b]pyridin-7-yl}methyl)-1H-pyrazol-1-yl]methyl}-N-[1-(5-methyl-4H-1,2,4-triazol-3-yl)ethyl]benzamide] | 101 to 999 | 101 to 999
Nc1cc(Cc2cnn(Cc3cccc(N4CCNC(c5ccccc5)C4)c3)c2)c2nn[nH]c2n1 (centres unmarked) [Example 219, 7-[(1-{[3-(3-Phenylpiperazin-1-yl)phenyl]methyl}-1H-pyrazol-4-yl)methyl]-3H-[1,2,3]triazolo[4,5-b]pyridin-5-amine] | 101 to 999 | 1 to 100
Cn1ccc(-c2cccc(Cn3cc(Cc4cc(N)nc5[nH]nnc45)cn3)c2)n1 [Example 100, 7-((1-(3-(1-Methyl-1H-pyrazol-3-yl)benzyl)-1H-pyrazol-4-yl)methyl)-3H-[1,2,3]triazolo[4,5-b]pyridin-5-amine] | 1 to 100 | 1 to 100
Nc1cc(Cc2cnn(Cc3cncc(-c4ccccc4)c3)c2)c2nn[nH]c2n1 [Example 125, 7-((1-((5-Phenylpyridin-3-yl)methyl)-1H-pyrazol-4-yl)methyl)-3H-[1,2,3]triazolo[4,5-b]pyridin-5-amine] | 1 to 100 | 1 to 100
CC1CCN(S(=O)(=O)c2cccc(Cn3cc(Cc4cc(N)nc5[nH]nnc45)cn3)c2)CC1 [Example 139, 7-{[1-({3-[(4-Methylpiperidin-1-yl)sulfonyl]phenyl}methyl)-1H-pyrazol-4-yl]methyl}-3H-[1,2,3]triazolo[4,5-b]pyridin-5-amine] | 1 to 100 | 101 to 999
CC1CNCCC1c1cccc(Cn2cc(Cc3cc(N)nc4[nH]nnc34)cn2)c1 (centres unmarked) [Example 212, 7-[(1-{[3-(3-Methylpiperidin-4-yl)phenyl]methyl}-1H-pyrazol-4-yl)methyl]-3H-[1,2,3]triazolo[4,5-b]pyridin-5-amine] | 1 to 100 | 1 to 100
Nc1cc(Cc2cnn(CC3CCN(Cc4ccccc4)C3)c2)c2nn[nH]c2n1 (centres unmarked) [Example 184, 7-({1-[(1-Benzylpyrrolidin-3-yl)methyl]-1H-pyrazol-4-yl}methyl)-3H-[1,2,3]triazolo[4,5-b]pyridin-5-amine] | 1 to 100 | 101 to 999
Nc1cc(Cc2cnn(Cc3cccc4c3Cc3ccccc3-4)c2)c2nn[nH]c2n1 [Example 266, 7-{[1-(9H-Fluoren-1-ylmethyl)-1H-pyrazol-4-yl]methyl}-3H-[1,2,3]triazolo[4,5-b]pyridin-5-amine] | 1 to 100 | 101 to 999
CC1C[C@@H](c2cccc(Cn3cc(Cc4cc(N)nc5[nH]nnc45)cn3)c2)CN1 (stereo partly drawn) [Example 202, 7-{[1-({3-[(3S)-5-Methylpyrrolidin-3-yl]phenyl}methyl)-1H-pyrazol-4-yl]methyl}-3H-[1,2,3]triazolo[4,5-b]pyridin-5-amine] | 1 to 100 | 1 to 100
Nc1cc(Cc2cnn(Cc3cccc(-c4c[nH]cn4)c3)c2)c2nn[nH]c2n1 [Example 278, 7-[(1-{[3-(1H-Imidazol-4-yl)phenyl]methyl}-1H-pyrazol-4-yl)methyl]-3H-[1,2,3]triazolo[4,5-b]pyridin-5-amine] | 1 to 100 | 101 to 999
Nc1cc(Cc2cnn(Cc3cccc(N4C[C@@H]5C[C@H]4CN5)c3)c2)c2nn[nH]c2n1 [Example 224, 7-{[1-({3-[(1S,4S)-2,5-Diazabicyclo[2.2.1]heptan-2-yl]phenyl}methyl)-1H-pyrazol-4-yl]methyl}-3H-[1,2,3]triazolo[4,5-b]pyridin-5-amine] | 101 to 999 | 1 to 100
Nc1cc(Cc2cnn(Cc3cccc(-c4ccc(OC(F)(F)F)cc4)c3)c2)c2nn[nH]c2n1 [Example 155, 7-{[1-({3-[4-(Trifluoromethoxy)phenyl]phenyl}methyl)-1H-pyrazol-4-yl]methyl}-3H-[1,2,3]triazolo[4,5-b]pyridin-5-amine] | 101 to 999 | 101 to 999
Nc1cc(Cc2cnn(Cc3cc(Cl)cc(-c4ccccc4)c3)c2)c2nn[nH]c2n1 [Example 276, 7-({1-[(3-Chloro-5-phenylphenyl)methyl]-1H-pyrazol-4-yl}methyl)-3H-[1,2,3]triazolo[4,5-b]pyridin-5-amine] | 101 to 999 | 101 to 999
Nc1cc(Cc2cnn(Cc3cc([C@@H]4CC(=O)NC4CO)cc(C(F)(F)F)c3)c2)c2nn[nH]c2n1 (stereo partly drawn) [Example 201, (4S)-4-(3-{[4-({5-Amino-3H-[1,2,3]triazolo[4,5-b]pyridin-7-yl}methyl)-1H-pyrazol-1-yl]methyl}-5-(trifluoromethyl)phenyl)-5-(hydroxymethyl)pyrrolidin-2-one] | 1 to 100 | 1 to 100
N#Cc1cc(Br)cc(Cn2cc(Cc3cc(N)nc4[nH]nnc34)cn2)c1 [Example 275, 3-{[4-({5-Amino-3H-[1,2,3]triazolo[4,5-b]pyridin-7-yl}methyl)-1H-pyrazol-1-yl]methyl}-5-bromobenzonitrile] | 1 to 100 | 101 to 999
Nc1cc(Cc2cnn(Cc3ccc4c(c3)CC[C@@H]4N)c2)c2nn[nH]c2n1 [Example 270, 7-[(1-{[(1S)-1-Amino-2,3-dihydro-1H-inden-5-yl]methyl}-1H-pyrazol-4-yl)methyl]-3H-[1,2,3]triazolo[4,5-b]pyridin-5-amine] | 101 to 999 | 101 to 999
Nc1cc(Cc2cnn(CCCC3CCNCC3)c2)c2nn[nH]c2n1 [Example 273, 7-({1-[3-(Piperidin-4-yl)propyl]-1H-pyrazol-4-yl}methyl)-3H-[1,2,3]triazolo[4,5-b]pyridin-5-amine] | 1 to 100 | 101 to 999
